In patent US9884063B2, “Amido-substituted azole compounds” (Bayer Pharma Aktiengesellschaft, priority 2014, dated 2018):
Where a name gives a salt, the structure may show the parent alone.

Tests used:
TNKS1 = molecular target: T1, TNKS1 (Homo sapiens, UniProt O95271); assay: Modified TNKS1 Assay 3 (BPS kit #80573, biotin-NAD+, 96 well); format: biochemical; conditions: human TNKS1, BPS kit #80573, 96 well
T1 sequence (O95271 1-1327): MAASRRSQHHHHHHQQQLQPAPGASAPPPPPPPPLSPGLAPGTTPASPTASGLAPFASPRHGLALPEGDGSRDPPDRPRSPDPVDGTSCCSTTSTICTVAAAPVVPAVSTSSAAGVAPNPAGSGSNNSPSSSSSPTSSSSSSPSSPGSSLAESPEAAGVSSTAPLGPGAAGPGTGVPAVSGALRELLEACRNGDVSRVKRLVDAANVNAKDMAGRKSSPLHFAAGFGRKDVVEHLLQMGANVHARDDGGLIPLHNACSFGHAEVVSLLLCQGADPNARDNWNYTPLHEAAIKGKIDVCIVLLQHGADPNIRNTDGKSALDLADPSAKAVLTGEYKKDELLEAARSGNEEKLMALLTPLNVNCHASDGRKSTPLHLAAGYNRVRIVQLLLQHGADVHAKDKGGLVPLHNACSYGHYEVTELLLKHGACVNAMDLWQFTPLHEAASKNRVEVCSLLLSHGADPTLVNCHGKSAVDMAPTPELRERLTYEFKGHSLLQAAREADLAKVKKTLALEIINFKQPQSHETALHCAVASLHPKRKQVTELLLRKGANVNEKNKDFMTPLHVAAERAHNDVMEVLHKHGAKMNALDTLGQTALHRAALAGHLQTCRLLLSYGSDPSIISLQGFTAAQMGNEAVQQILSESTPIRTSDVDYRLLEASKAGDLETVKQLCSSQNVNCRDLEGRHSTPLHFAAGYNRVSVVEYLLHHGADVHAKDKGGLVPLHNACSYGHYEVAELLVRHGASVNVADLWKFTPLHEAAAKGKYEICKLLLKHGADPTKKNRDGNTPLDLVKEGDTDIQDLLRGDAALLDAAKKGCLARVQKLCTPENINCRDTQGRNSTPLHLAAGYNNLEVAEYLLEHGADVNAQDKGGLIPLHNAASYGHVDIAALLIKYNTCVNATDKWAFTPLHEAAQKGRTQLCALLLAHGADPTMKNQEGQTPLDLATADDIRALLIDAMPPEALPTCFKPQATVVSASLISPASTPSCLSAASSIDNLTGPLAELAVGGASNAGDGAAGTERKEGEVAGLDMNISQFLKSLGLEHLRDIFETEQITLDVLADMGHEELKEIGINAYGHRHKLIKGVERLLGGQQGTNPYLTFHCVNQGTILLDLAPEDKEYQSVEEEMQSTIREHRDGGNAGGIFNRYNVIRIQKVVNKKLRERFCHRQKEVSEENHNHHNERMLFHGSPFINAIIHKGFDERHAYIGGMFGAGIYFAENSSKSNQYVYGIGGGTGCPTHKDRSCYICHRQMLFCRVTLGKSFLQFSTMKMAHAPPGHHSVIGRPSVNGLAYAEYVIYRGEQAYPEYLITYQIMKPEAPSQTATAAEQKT
Method in brief: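 Chemiluminescent assay of TNKS1-catalysed ribosylation of a protein substrate with biotin-labelled NAD+, detected via streptavidin-HRP; run per kit protocol. Inhibition lowers the signal, and IC50 is the compound concentration halving the normalised readout.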

[1] = test system: HEK293 FOP control reporter cell line; assay: HEK293 FOP Assay (FOP control vector luciferase reporter); format: cell-based; conditions: Homo sapiens
Method in brief: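 Stable HEK293 line carrying the FOP vector (randomized, non-functional TCF sites; Geneticin-selected) was run in parallel with the TOP line. Cells were plated 24 h ahead at 10000/well and given recombinant human Wnt-3a at 2500–5 ng/ml. Compounds were tested at 50 μM–15 nM (3.16-fold steps) in CAFTY buffer, pH 7.4, with 2 mM Ca2+ and 0.01% BSA.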

[2] = HEK293 FOP control reporter cell line, 16 hours incubation, compound dilution series 50 μM to 15 nM
[3] = HEK293 FOP control reporter cells, 16 hours, luciferase, dilution series from 50 μM

SMILES	IC50 (TNKS1) [µM]	IC50 [1, 2] [µM]	IC50 [1, 3] [µM]	IC50 ([1]; HEK293, 16 h, HEK293 FOP control reporter cell line, 16 hours incubation, compound dilution series 50 μM to 15 nM) [µM]
O=C(Nc1ccc(NC(=O)c2nc[nH]c2C(=O)NCCN2CCC(F)(F)CC2)cc1)c1ccccc1Cl [Example 214, N^4-{4-[(2-chlorobenzoyl)amino]phenyl}-N^5-[2-(4,4-difluoropiperidin-1-yl)ethyl]-1H-imidazole-4,5-dicarboxamide]	0.2	22	–	–
CN(C)CCNC(=O)c1ncoc1C(=O)Nc1ccc(NC(=O)c2ccc(F)cc2Cl)cc1 [Example 31, N^5-{4-[(2-chloro-4-fluorobenzoyl)amino]phenyl}-N^4-[2-(dimethylamino)ethyl]-1,3-oxazole-4,5-dicarboxamide]	0.13	–	≥ 50	–
O=C(Nc1ccc(NC(=O)c2nc[nH]c2C(=O)NC2CCOCC2)cc1)c1ccc(F)cc1Cl [Example 234, N^4-{4-[(2-chloro-4-fluorobenzoyl)amino]phenyl}-N^5-(tetrahydro-2H-pyran-4-yl)-1H-imidazole-4,5-dicarboxamide]	0.22	16	–	–
O=C(Nc1ccc(NC(=O)c2nc[nH]c2C(=O)NCCN2CCC(F)(F)CC2)cc1)c1ccc(F)cc1Cl [Example 224, N^4-{4-[(2-chloro-4-fluorobenzoyl)amino]phenyl}-N^5-[2-(4,4-difluoropiperidin-1-yl)ethyl]-1H-imidazole-4,5-dicarboxamide]	0.26	27	–	–
O=C(Nc1ccc(NC(=O)c2ocnc2C(=O)NCCN2CC[C@@H](F)C2)cc1)c1ccc(F)cc1Cl [Example 222, N^5-{4-[(2-chloro-4-fluorobenzoyl)amino]phenyl}-N^4-{2-[(3R)-3-fluoropyrrolidin-1-yl]ethyl}-1,3-oxazole-4,5-dicarboxamide]	0.22	23	–	–
O=C(Nc1ccc(NC(=O)c2ocnc2C(=O)NCCN2CCCC(F)C2)cc1)c1ccc(F)cc1Cl (stereo not drawn) [Example 220, N^5-{4-[(2-chloro-4-fluorobenzoyl)amino]phenyl}-N^4-[2-(3-fluoropiperidin-1-yl)ethyl]-1,3-oxazole-4,5-dicarboxamide]	0.26	36	–	–
CNC(=O)c1nc[nH]c1C(=O)Nc1ccc(NC(=O)c2cccc(C)c2Cl)cc1 [Example 346, N^5-{4-[(2-chloro-3-methylbenzoyl)amino]phenyl}-N^4-methyl-1H-imidazole-4,5-dicarboxamide]	> 0.5	26	–	–
CC(C)[C@@H](C)NC(=O)c1[nH]cnc1C(=O)Nc1ccc(NC(=O)c2ccc(F)cc2Cl)cc1 [Example 134, N^4-{4-[(2-chloro-4-fluorobenzoyl)amino]phenyl}-N^5-[(2R)-3-methylbutan-2-yl]-1H-imidazole-4,5-dicarboxamide]	0.36	6.3	–	–
O=C(Nc1ccc(NC(=O)c2[nH]cnc2C(=O)NCCN2CCCCC2)cc1)c1ccc(F)cc1 [Example 33, N^4-{4-[(4-fluorobenzoyl)amino]phenyl}-N^5-[2-(piperidin-1-yl)ethyl]-1H-imidazole-4,5-dicarboxamide]	> 0.5	–	≥ 50	–
O=C(Nc1ccc(NC(=O)c2nc[nH]c2C(=O)NCC2CCCN2)cc1)c1ccc(F)cc1Cl (stereo not drawn) [Example 284, N^4-{4-[(2-chloro-4-fluorobenzoyl)amino]phenyl}-N^5-(pyrrolidin-2-ylmethyl)-1H-imidazole-4,5-dicarboxamide hydrochloride salt]	0.06	–	–	50
O=C(Nc1ccc(NC(=O)c2nc[nH]c2C(=O)NCCN2CCOCC2)cc1)c1ccc(F)cc1Cl [Example 227, N^4-{4-[(2-chloro-4-fluorobenzoyl)amino]phenyl}-N^5-[2-(morpholin-4-yl)ethyl]-1H-imidazole-4,5-dicarboxamide]	0.2	23	–	–

Continued, in another order:

IC50 (TNKS1) [µM]	SMILES	IC50 [1, 2] [µM]	IC50 [1, 3] [µM]	IC50 ([1]; HEK293, 16 h, HEK293 FOP control reporter cell line, 16 hours incubation, compound dilution series 50 μM to 15 nM) [µM]
0.04	COc1cc(NC(=O)c2[nH]cnc2C(=O)NCCN2CCCCC2)ccc1NC(=O)c1ccccc1Cl [Example 101, N^5-{4-[(2-chlorobenzoyl)amino]-3-methoxyphenyl}-N^4-[2-(piperidin-1-yl)ethyl]-1H-imidazole-4,5-dicarboxamide]	29	–	–
0.002	O=C(Nc1ccc(NC(=O)c2[nH]cnc2C(=O)NCCN2CCCCC2)cc1F)c1ccc(F)cc1Cl [Example 74, N^5-{4-[(2-chloro-4-fluorobenzoyl)amino]-3-fluorophenyl}-N^4-[2-(piperidin-1-yl)ethyl]-1H-imidazole-4,5-dicarboxamide]	14	–	–
0.01	O=C(Nc1ccc(NC(=O)c2[nH]cnc2C(=O)NCCN2CCCCC2)cc1F)c1ccccc1Cl [Example 82, N^5-{4-[(2-chlorobenzoyl)amino]-3-fluorophenyl}-N^4-[2-(piperidin-1-yl)ethyl]-1H-imidazole-4,5-dicarboxamide]	44	–	–
0.07	O=C(Nc1ccc(NC(=O)c2[nH]cnc2C(=O)NCCN2CCCCC2)cc1)c1cc(OC(F)(F)F)ccc1Br [Example 63, N^5-(4-{[2-bromo-5-(trifluoromethoxy)benzoyl]amino}phenyl)-N^4-[2-(piperidin-1-yl)ethyl]-1H-imidazole-4,5-dicarboxamide]	11	–	–
0.0009	CCN1CCCC1CNC(=O)c1nc[nH]c1C(=O)Nc1ccc(NC(=O)c2ccc(F)cc2Cl)cc1 (stereo not drawn) [Example 390, N^5-{4-[(2-chloro-4-fluorobenzoyl)amino]phenyl}-N^4-[(1-ethylpyrrolidin-2-yl)methyl]-1H-imidazole-4,5-dicarboxamide]	18	–	–
0.07	O=C(Nc1ccc(NC(=O)c2nc[nH]c2C(=O)NCCN2CCC[C@@H](F)C2)cc1)c1ccc(F)cc1Cl [Example 277, N^4-{4-[(2-chloro-4-fluorobenzoyl)amino]phenyl}-N^5-{2-[(3R)-3-fluoropiperidin-1-yl]ethyl}-1H-imidazole-4,5-dicarboxamide]	36	–	–
0.09	O=C(Nc1ccc(NC(=O)c2nc[nH]c2C(=O)NCCN2CCC(F)CC2)cc1)c1ccc(F)cc1Cl [Example 230, N^4-{4-[(2-chloro-4-fluorobenzoyl)amino]phenyl}-N^5-[2-(4-fluoropiperidin-1-yl)ethyl]-1H-imidazole-4,5-dicarboxamide]	27	–	–
0.02	CN1CCN(CCCNC(=O)c2nc[nH]c2C(=O)Nc2ccc(NC(=O)c3ccc(F)cc3Cl)cc2)CC1 [Example 392, N^5-{4-[(2-chloro-4-fluorobenzoyl)amino]phenyl}-N^4-[3-(4-methylpiperazin-1-yl)propyl]-1H-imidazole-4,5-dicarboxamide]	18	–	–
0.02	CC1CCCN(CCNC(=O)c2[nH]cnc2C(=O)Nc2ccc(NC(=O)c3ccccc3Cl)cc2)C1 (stereo not drawn) [Example 210, N^4-{4-[(2-chlorobenzoyl)amino]phenyl}-N^5-[2-(3-methylpiperidin-1-yl)ethyl]-1H-imidazole-4,5-dicarboxamide]	24	–	–
0.06	COC(=O)c1nc[nH]c1C(=O)Nc1ccc(NC(=O)c2ccc(F)cc2Cl)cc1 [Example 13, Methyl 5-({4-[(2-chloro-4-fluorobenzoyl)amino]phenyl}carbamoyl)-1H-imidazole-4-carboxylate]	25	25	–
0.11	CC(CN1CCOCC1)NC(=O)c1[nH]cnc1C(=O)Nc1ccc(NC(=O)c2ccc(F)cc2Cl)cc1 (stereo not drawn) [Example 268, N^4-{4-[(2-chloro-4-fluorobenzoyl)amino]phenyl}-N^5-[1-(morpholin-4-yl)propan-2-yl]-1H-imidazole-4,5-dicarboxamide]	41	–	–
